Laboratory results: US20080171756A1, “N-Substituted Glycine Derivatives: Prolyl Hydroxylase Inhibitors” (priority 2007, published 2008)

System: Hep3B cells
Assay: Epo protein produced by Hep3B cell line, ELISA / AlphaLISA
Assay type: cell-based
Conditions: Homo sapiens, 48 hours incubation, 100 micromolar = maximum concentration tested
Protocol: Hep3B cells obtained from the American Type Culture Collection (ATCC) are seeded at 2×10̂4 cells/well in Dulbecco's Modified Eagle Medium (DMEM)+10% FBS in 96-well plates. Cells are incubated at 37deg C./5% CO2/90% humidity (standard cell culture incubation conditions). After overnight adherence, medium is removed and replaced with DMEM without serum containing test compound or DMSO negative control. Following 48 hours incubation, cell culture medium is collected and assayed by ELISA to quantitate Epo protein.
Hep3B cells obtained from the American Type Culture Collection (ATCC) are seeded at 2×10̂4 cells/well in Dulbecco's Modified Eagle Medium (DMEM)+10% FBS in 96-well plates. Cells are incubated at 37deg C./5% CO2/90% humidity (standard cell culture incubation conditions). After overnight adherence, medium is removed and replaced with DMEM with 2% serum containing test compound or DMSO negative control. Following 48 hours incubation, cell culture medium is collected and either frozen for later assay or assayed immediately by AlphaLISA to quantitate Epo protein.

EC50, > 100 µM:
CC(C)(C)c1ccc(Cn2c(-c3c(-c4ccccc4)cccc3-c3ccccc3)nc(O)c(C(=O)NCC(=O)O)c2=O)cc1 [Example 43, N-{[1-{[4-(1,1-Dimethylethyl)phenyl]methyl}-4-hydroxy-6-oxo-2-(1,1′:3′,1″-terphenyl-2′-yl)-1,6-dihydro-5-pyrimidinyl]carbonyl}glycine]
CC(C)(C)c1ccc(Cn2c(-c3c(Cl)cccc3Cl)nc(O)c(C(=O)NCC(=O)O)c2=O)cc1 [Example 29, N-[(2-(2,6-Dichlorophenyl)-1-{[4-(1,1-dimethylethyl)phenyl]methyl}-4-hydroxy-6-oxo-1,6-dihydro-5-pyrimidinyl)carbonyl]glycine]
CC(C)(C)c1ccc(Cn2c(-c3c(Br)cccc3Br)nc(O)c(C(=O)NCC(=O)O)c2=O)cc1 [Example 42, N-[(2-(2,6-Dibromolphenyl)-1-{[4-(1,1-dimethylethyl)phenyl]methyl}-4-hydroxy-6-oxo-1,6-dihydro-5-pyrimidinyl)carbonyl]glycine]
Cc1cccc(C)c1-c1nc(O)c(C(=O)NCC(=O)O)c(=O)n1Cc1ccc(C(C)(C)C)cc1 [Example 40, N-{[1-{[4-(1,1-Dimethylethyl)phenyl]methyl}-2-(2,6-dimethylphenyl)-4-hydroxy-6-oxo-1,6-dihydro-5-pyrimidinyl]carbonyl}glycine]
O=C(O)CNC(=O)c1c(O)nc(-c2cccc(C(=O)NCc3ccccc3)c2)n(Cc2ccccc2)c1=O [Example 20, N-{[4-Hydroxy-6-oxo-1-(phenylmethyl)-2-(3-{[(phenylmethyl)amino]carbonyl}phenyl)-1,6-dihydro-5-pyrimidinyl]carbonyl}glycine]
CC(C)(C)c1ccc(Cn2c(-c3c(Cl)cccc3-c3ccccc3)nc(O)c(C(=O)NCC(=O)O)c2=O)cc1 [Example 55, N-[(2-(3-Chloro-2-biphenylyl)-1-{[4-(1,1-dimethylethyl)phenyl]methyl}-4-hydroxy-6-oxo-1,6-dihydro-5-pyrimidinyl)carbonyl]glycine]
O=C(O)CNC(=O)c1c(O)nc(-c2ccccc2)[nH]c1=O [Example 2, N-[(4-Hydroxy-6-oxo-2-phenyl-1,6-dihydro-5-pyrimidinyl)carbonyl]glycine]
O=C(O)CNC(=O)c1c(O)nc(-c2c(Cl)cccc2-c2ccccc2)n(Cc2ccccc2Cl)c1=O [Example 56, N-({2-(3-Chloro-2-biphenylyl)-1-[(2-chlorophenyl)methyl]-4-hydroxy-6-oxo-1,6-dihydro-5-pyrimidinyl}carbonyl)glycine]
O=C(O)CNC(=O)c1c(O)nc(-c2cccc(C(=O)O)c2)n(Cc2ccccc2)c1=O [Example 26, 3-[5-{[(Carboxymethyl)amino]carbonyl}-4-hydroxy-6-oxo-1-(phenylmethyl)-1,6-dihydro-2-pyrimidinyl]benzoic acid]
O=C(O)CNC(=O)c1c(O)nc(-c2cccc(C(=O)O)c2)[nH]c1=O [Example 18, 3-(5-{[(Carboxymethyl)amino]carbonyl}-4-hydroxy-6-oxo-1,6-dihydro-2-pyrimidinyl)benzoic acid]
CC(C)CC(CC(C)C)c1nc(O)c(C(=O)NCC(=O)O)c(=O)n1Cc1ccc(C(C)(C)C)cc1 [Example 48]
CC(C)(C)c1ccc(Cn2c(-c3ccccc3-c3ccc(C(F)(F)F)cc3)nc(O)c(C(=O)NCC(=O)O)c2=O)cc1 [Example 49, N-({1-{[4-(1,1-Dimethylethyl)phenyl]methyl}-4-hydroxy-6-oxo-2-[4′-(trifluoromethyl)-2-biphenylyl]-1,6-dihydro-5-pyrimidinyl}carbonyl)glycine]
CC(C)(C)c1ccc(Cn2c(-c3ccccc3-c3cc(F)cc(F)c3)nc(O)c(C(=O)NCC(=O)O)c2=O)cc1 [Example 47, N-[(2-(3′,5′-Difluoro-2-biphenylyl)-1-{[4-(1,1-dimethylethyl)phenyl]methyl}-4-hydroxy-6-oxo-1,6-dihydro-5-pyrimidinyl)carbonyl]glycine]
CC(C)(C)c1ccc(Cn2c(-c3c(Cl)cc(Cl)cc3Cl)nc(O)c(C(=O)NCC(=O)O)c2=O)cc1 [Example 57, N-{[1-{[4-(1,1-Dimethylethyl)phenyl]methyl}-4-hydroxy-6-oxo-2-(2,4,6-trichlorophenyl)-1,6-dihydro-5-pyrimidinyl]carbonyl}glycine]
CC(C)(C)c1ccc(Cn2c(-c3ccccc3-c3ccccc3)nc(O)c(C(=O)NCC(=O)O)c2=O)cc1 [Example 46, N-[(2-(2-Biphenylyl)-1-{[4-(1,1-dimethylethyl)phenyl]methyl}-4-hydroxy-6-oxo-1,6-dihydro-5-pyrimidinyl)carbonyl]glycine]
O=C(O)CNC(=O)c1c(O)nc(-c2ccccc2Cl)n(Cc2ccccc2)c1=O [Example 30, N-{[2-(2-Chlorophenyl)-4-hydroxy-6-oxo-1-(phenylmethyl)-1,6-dihydro-5-pyrimidinyl]carbonyl}glycine]
